Series [1] has as its target T1, sodium iodide symporter (NIS) (Rattus norvegicus, UniProt Q63008).
T1 construct: endogenous in cells; host or cells: FRTL5 (rat thyroid-derived cells)
T1 sequence (Q63008 1-618): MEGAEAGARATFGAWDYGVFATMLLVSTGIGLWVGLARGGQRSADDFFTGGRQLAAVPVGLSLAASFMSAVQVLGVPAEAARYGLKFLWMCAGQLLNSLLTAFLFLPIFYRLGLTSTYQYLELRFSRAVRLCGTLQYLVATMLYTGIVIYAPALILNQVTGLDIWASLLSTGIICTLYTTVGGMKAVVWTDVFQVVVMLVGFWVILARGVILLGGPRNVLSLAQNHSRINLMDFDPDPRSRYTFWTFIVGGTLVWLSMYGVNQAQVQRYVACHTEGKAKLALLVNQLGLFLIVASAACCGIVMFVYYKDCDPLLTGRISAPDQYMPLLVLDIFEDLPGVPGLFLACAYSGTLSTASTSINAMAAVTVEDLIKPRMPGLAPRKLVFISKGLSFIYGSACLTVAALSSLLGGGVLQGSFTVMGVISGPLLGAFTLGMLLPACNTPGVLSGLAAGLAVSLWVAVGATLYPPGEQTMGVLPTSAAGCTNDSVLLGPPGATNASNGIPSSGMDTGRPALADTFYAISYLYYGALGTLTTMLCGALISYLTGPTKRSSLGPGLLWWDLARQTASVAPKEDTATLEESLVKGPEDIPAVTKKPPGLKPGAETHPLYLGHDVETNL
As to the kind of experiment: radioiodide uptake assay in FRTL5 cells (24-well plate). The class given is cell-based. The note with it: 60 min, NaI 10 μM, averaged from two to four independent experiments, read-out: IC50 against iodide uptake in FRTL5 cells. The procedure: In the framework of the invention, the NIS inhibitor is evaluated as follow: rat thyroid-derived cells (FRTL5 cells expressing NIS) are incubated during 1 h with iode and 125-I as a tracer, and in the presence of various concentration of compound. For each tested concentration of compound, the amount of iodide inside the cells is quantified by radioactive counting. The half-maximum inhibitory concentration (IC50) is evaluated for each compound by regression analysis (to the Hill equation) from dose-response data. A detailed protocol is provided in the experimental section, and also in N. Lecat-Guillet et al., ChemMedChem, 2008.
The synthesized compounds were evaluated for their ability to inhibit iodide entrapment in FRTL5 cells using a rodiodide uptake assay. The IC50 values were measured in at least two independent experiments.
The biological activity of each compound was determined in FRTL5 cells, using a 24-well plate format radioiodide uptake assay. Each experiment was run in quadruplicate and at least twice independently. Compound potency was expressed as IC50, the concentration of compound necessary to achieve 50% inhibition of iodide uptake. NaClO4 and the Compound 2 were tested as assay controls.
FRTL5 cells were cultured in Coon's modified F12 medium supplemented with 5% heat-inactivated fetal bovine serum (Invitrogen), 2 mM L-glutamine, 100 U/mL penicillin, 0.1 mg/mL streptomycin, 10 μg/mL insulin, 10 nM hydrocortisone, 10 ng/mL Gly-His-Lys acetate, 1 mU/mL TSH, 5 μg/mL transferrin at 37° C. and 5% CO2. For iodide uptake assays, 1.25 mL of FRTL5 cells with density of 250,000 cells/mL were dispensed in each well of clear flat-bottomed 24-well polystyrene microplates (BD Falcon 3047), and further cultured until confluence reached 70-90% (3-4 days).
Prepare ˜1.5 mL/plate of an intermediate “10-fold” radioiodide uptake buffer solution: NaI (100 μM) and [125-I]-NaI (20 μCi/mL) in uptake buffer (HBSS/Hepes).
For each concentration of compound tested, prepare ˜2.5 mL of compound solutions in uptake buffer (HBSS/Hepes 10 mM) at 1.12 fold the final concentration, so that 450 μL of this solution plus 50 μL of radioiodide uptake buffer makes the desired final concentration (NaI 10 μM final, 1 μCi/well).
The procedure is performed at 20±2° C. in a well ventilated hood. Culture medium of FRTL5 cells is removed by aspiration. Compound solutions are added to the 24-well plate in quadruplicate (450 μL/well) immediately followed by [125I]-NaI radioiodide uptake buffer (50 μL/well, 10 μM final, 1 μCi/well). The 24-well plate is left to stand for 60 min. Radioactive supernatants are removed by aspiration and the cell are washed twice with 500 μL of cold uptake buffer (HBSS/Hepes at 4° C.). Finally, the residual supernatant is removed by aspiration and 500 μL of lysis buffer (SDS 0.1%, triton 0.5%) is added to each well. The 24-well plate is gently agitated for 60-120 min. The radioactive cell lysates are collected and placed into scintillation vials. Scintillation cocktail (Ultima gold LLT, Perkin Elmer) is added to each vial (4 mL) and the radioactivity is measured (Wallac 1409). For IC50 determination, mean DPM values were fitted by non-linear regression (least square) to the four-parameter sigmoidal Hill equation.
IC50 values are averaged from two to four independent experiments. A standard deviation of 2-fold was judged acceptable. NaClO4 and Compound 2 were tested as assay controls.

Series [2] deals with T1, sodium iodide symporter (NIS). To be noted: rat thyroid-derived cells (FRTL5); F. Waltz et al. 2010; read-out: IC50 competitive inhibition of iodide transport in FRTL5; cited from earlier work.
The conditions of series [3]: concentration up to 200 μM; cited from earlier work.

Like-named read-outs stand apart in the source and are kept apart here.

The IC50 is the concentration that gives 50% inhibition. As to `COc1ccc(F)c(C2OCCc3c2[nH]c2ccccc32)c1` (stereo not shown) [Compound 10, 1-(2-fluoro-5-methoxyphenyl)-1,3,4,9-tetrahydropyrano[3,4-b]indole], the IC50 in series [1] is 0.057 µM.

`O=[N+]([O-])c1cccc(C2NCCc3c2oc2ccccc32)c1` (stereo not shown) [Compound 5, 1-(3-nitrophenyl)-1,2,3,4-tetrahydro[1]benzofuro[2,3-c]pyridine]: the IC50 in series [1] is 0.2 µM.

For the compound `c1cc2c(c(C3OCCc4c3[nH]c3ccccc43)c1)OCO2` (stereo not shown) [Compound 8, 1-(benzo[d][1,3]dioxol-4-yl)-1,3,4,9-tetrahydropyrano[3,4-b]indole], in series [1], the IC50 worked out at 0.00041 µM.

For the compound `O=[N+]([O-])c1cccc(C2OCCc3c2[nH]c2ccccc32)c1` (stereo not shown) [Compound 4, 1-(3-nitrophenyl)-1,3,4,9-tetrahydropyrano[3,4-b]indole], in series [1], the IC50 worked out at 0.0053 µM.

For the compound `[O-][Cl+3]([O-])([O-])O` [ClO4^−], in series [2], the IC50 was 0.14 µM.

Regarding `O=[N+]([O-])O` [NO3^−], in series [2], the IC50 was 250 µM.

Consider `Fc1ccc(F)c(C2OCCc3c2[nH]c2ccccc32)c1` (stereo not shown) [Compound 7, 1-(2,5-difluorophenyl)-1,3,4,9-tetrahydropyrano[3,4-b]indole], for which the IC50 in series [1] is 0.17 µM.

Consider `F[B-](F)(F)F` [BF4^−], for which the IC50 in series [2] is 0.75 µM.

For the compound `Brc1cccc(C2OCCc3c2[nH]c2ccccc32)c1` (stereo not shown) [Compound 11, 1-(3-bromophenyl)-1,3,4,9-tetrahydropyrano[3,4-b]indole], the IC50 in series [1] is 0.17 µM.

As for `F[P-](F)(F)(F)(F)F` [PF6^−], the IC50 in series [2] was 0.009 µM.

With `Brc1cccc(C2NCCc3c2[nH]c2ccccc32)c1` (stereo not shown) [Compound 1], the cytotoxicity result in series [3] is given as “not cytotoxic”.

Take `Fc1ccc(C2OCCc3c2[nH]c2ccccc32)cc1Cl` (stereo not shown) [Compound 12, 1-(3-chloro-4-fluorophenyl)-1,3,4,9-tetrahydropyrano[3,4-b]indole]: the IC50 in series [1] was determined as 0.2 µM.

With `Nc1cccc(C2OCCc3c2[nH]c2ccccc32)c1` (stereo not shown) [Compound 13, 1-(3-aminophenyl)-1,3,4,9-tetrahydropyrano[3,4-b]indole], the IC50 in series [1] was 0.0011 µM.

With `O=[N+]([O-])c1cccc(C2SCCc3c2[nH]c2ccccc32)c1` (stereo not shown) [Compound 6, 1-(3-nitrophenyl)-1,3,4,9-tetrahydrathiopyrano[3,4-b]indole], the IC50 in series [1] was 0.14 µM.

On to `O=[N+]([O-])c1cccc(C2NCCc3c2[nH]c2ccccc32)c1` (stereo not shown) [Compound 2], for which the cytotoxicity result in series [3] was “not cytotoxic”.

With `Clc1cccc(C2OCCc3c2[nH]c2ccccc32)c1` (stereo not shown) [Compound 9, 1-(3-chlorophenyl)-1,3,4,9-tetrahydropyrano[3,4-b]indole], in series [1], the IC50 was 0.14 µM.

The record behind these values is patent US20150299218A1, “Heterocyclic Compounds As Inhibitors Of The Sodium Iodide Symporter” (COMMISSARIAT A L'ENERGIE ATOMIQUE ET AUX ENERGIES …, priority 2012, published 2015).
